Reference: ChEMBL document CHEMBL5154636, “Discovery of STAT3 and Histone Deacetylase (HDAC) Dual-Pathway Inhibitors for the Treatment of Solid Cancer” (J Med Chem, 2021)
Activity calls are given as the source filed them. The rule behind the calls is not given here.

Legend:
[1] = test system: MDA-MB-231; experiment: Induction of apoptosis in human MDA-MB-231 cells assessed as early apoptotic cells at 10 uM incubated for 24 hrs by Annexin-V/FITC and PI staining based flow cytometry analysis (reference value: 1.4%); type: functional
[2] = biological target: T1, Signal transducer and activator of transcription 3 (Homo sapiens, UniProt P40763); experiment: Inhibition of STAT3 phosphorylation at Y705 residue in human MDA-MB-231 cells incubated for 24 hrs by Western blot assay; type: cell-based; settings: dose 0.5-5 µM
T1 sequence (P40763 whole entry): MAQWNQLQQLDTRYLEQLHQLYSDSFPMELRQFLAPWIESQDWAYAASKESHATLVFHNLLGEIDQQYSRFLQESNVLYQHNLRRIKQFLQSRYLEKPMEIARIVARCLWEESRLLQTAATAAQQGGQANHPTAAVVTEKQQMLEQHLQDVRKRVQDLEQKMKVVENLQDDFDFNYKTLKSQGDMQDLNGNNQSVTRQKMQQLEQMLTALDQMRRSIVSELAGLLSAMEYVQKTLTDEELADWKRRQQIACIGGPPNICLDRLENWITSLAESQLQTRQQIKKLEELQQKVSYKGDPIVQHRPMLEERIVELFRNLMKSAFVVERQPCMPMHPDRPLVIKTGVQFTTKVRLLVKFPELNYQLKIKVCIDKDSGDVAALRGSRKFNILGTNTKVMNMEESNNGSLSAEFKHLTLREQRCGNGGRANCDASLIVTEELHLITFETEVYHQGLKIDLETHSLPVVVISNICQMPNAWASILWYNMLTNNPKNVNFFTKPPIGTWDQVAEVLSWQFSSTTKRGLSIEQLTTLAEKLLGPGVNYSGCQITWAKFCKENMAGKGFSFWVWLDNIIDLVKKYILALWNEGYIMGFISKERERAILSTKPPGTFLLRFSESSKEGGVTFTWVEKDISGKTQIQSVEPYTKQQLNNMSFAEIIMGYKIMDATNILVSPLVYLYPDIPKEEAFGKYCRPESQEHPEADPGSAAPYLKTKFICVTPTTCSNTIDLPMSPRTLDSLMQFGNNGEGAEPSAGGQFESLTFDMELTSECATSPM

[3] = test system: MDA-MB-231; experiment: Induction of apoptosis in human MDA-MB-231 cells assessed as early apoptotic cells at 5 uM incubated for 24 hrs by Annexin-V/FITC and PI staining based flow cytometry analysis (reference value: 1.4%); type: functional
[4] = Volume of distribution at steady state in Sprague-Dawley rat at 2 mg/kg, iv measured upto 24 hrs by LC-MS/MS analysis; type: ADME, organism-based; settings: in vivo, read-out: Vdss
[5] = biological target: T2, Protein deacetylase HDAC6 (Homo sapiens, UniProt Q9UBN7); experiment: Inhibition of recombinant human HDAC6 using RHKK(Ac)AMC fluorogenic peptide as substrate by fluorescence assay
T2 sequence (Q9UBN7 whole entry): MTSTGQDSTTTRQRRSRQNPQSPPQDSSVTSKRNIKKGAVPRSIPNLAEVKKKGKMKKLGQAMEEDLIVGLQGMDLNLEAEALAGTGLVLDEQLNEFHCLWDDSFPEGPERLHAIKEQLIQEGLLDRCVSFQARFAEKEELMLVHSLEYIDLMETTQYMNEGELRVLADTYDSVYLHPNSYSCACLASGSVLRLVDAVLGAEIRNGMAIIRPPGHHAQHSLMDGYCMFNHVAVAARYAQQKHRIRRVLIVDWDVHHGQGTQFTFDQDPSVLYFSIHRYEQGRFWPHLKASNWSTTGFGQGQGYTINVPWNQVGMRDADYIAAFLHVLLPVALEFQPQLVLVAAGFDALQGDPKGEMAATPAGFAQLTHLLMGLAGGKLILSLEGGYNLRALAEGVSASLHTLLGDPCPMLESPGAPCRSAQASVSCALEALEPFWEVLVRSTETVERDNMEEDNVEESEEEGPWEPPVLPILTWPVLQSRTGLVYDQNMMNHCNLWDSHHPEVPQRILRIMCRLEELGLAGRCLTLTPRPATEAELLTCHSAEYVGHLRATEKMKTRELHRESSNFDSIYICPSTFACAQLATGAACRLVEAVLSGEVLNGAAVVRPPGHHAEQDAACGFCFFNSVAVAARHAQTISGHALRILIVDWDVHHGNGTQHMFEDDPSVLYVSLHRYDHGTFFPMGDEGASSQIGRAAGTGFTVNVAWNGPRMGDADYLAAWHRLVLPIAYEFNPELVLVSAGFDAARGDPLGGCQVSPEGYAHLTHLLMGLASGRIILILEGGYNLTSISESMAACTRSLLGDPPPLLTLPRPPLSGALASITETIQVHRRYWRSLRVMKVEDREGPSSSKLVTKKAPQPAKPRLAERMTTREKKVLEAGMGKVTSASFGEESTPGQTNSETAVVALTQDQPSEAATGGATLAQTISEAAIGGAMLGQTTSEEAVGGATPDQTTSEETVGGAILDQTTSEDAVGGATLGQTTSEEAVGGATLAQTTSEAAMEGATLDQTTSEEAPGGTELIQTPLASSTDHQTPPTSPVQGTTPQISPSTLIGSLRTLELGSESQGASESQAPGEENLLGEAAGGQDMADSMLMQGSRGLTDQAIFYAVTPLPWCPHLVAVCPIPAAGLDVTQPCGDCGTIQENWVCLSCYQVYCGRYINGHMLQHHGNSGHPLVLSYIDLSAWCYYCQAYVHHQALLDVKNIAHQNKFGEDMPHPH

[6] = biological target: T1, Signal transducer and activator of transcription 3; experiment: Inhibition of STAT3 in human MDA-MB-231 cells assessed as decrease in Bcl-2 protein expression at 0.5 to 5 uM after 24 hrs by Western blot analysis; type: cell-based; settings: dose 0.5-5 µM
[7] = test system: MDA-MB-231; experiment: Induction of apoptosis in human MDA-MB-231 cells assessed as late apoptotic cells at 5 uM incubated for 24 hrs by Annexin-V/FITC and PI staining based flow cytometry analysis (reference value: 0.7%); type: functional
[8] = biological target: T1, Signal transducer and activator of transcription 3; experiment: Inhibition of STAT3 in human MDA-MB-231 cells assessed as decrease in cyclin D1 mRNA expression at 0.5 to 5 uM by qRT-PCR analysis; type: cell-based; settings: dose 0.5-5 µM
[9] = test system: MDA-MB-231; experiment: Induction of apoptosis in human MDA-MB-231 cells assessed as early apoptotic cells at 2 uM incubated for 24 hrs by Annexin-V/FITC and PI staining based flow cytometry analysis (reference value: 1.4%); type: functional
[10] = biological target: T1, Signal transducer and activator of transcription 3; experiment: Inhibition of STAT3 in human MDA-MB-231 cells assessed as decrease in cyclin-D1 protein expression at 0.5 to 5 uM after 24 hrs by Western blot analysis; type: cell-based; settings: dose 0.5-5 µM
[11] = biological target: T3, Histone deacetylase 11 (Homo sapiens) (UniProt Q96DB2); experiment: Inhibition of recombinant human HDAC11 at 10 uM using Boc-Lys(TFA)-AMC as substrate by fluorescence assay relative to control
T3 sequence (whole entry): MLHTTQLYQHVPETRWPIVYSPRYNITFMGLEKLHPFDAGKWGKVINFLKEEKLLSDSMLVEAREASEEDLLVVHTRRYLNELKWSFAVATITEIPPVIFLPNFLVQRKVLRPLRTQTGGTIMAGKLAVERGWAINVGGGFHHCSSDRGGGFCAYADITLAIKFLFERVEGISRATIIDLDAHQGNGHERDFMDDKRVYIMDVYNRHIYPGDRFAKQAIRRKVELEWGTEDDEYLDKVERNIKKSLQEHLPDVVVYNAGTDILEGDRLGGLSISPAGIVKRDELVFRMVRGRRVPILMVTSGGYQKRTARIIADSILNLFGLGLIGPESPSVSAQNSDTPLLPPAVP

[12] = test system: MDA-MB-231; experiment: Induction of apoptosis in human MDA-MB-231 cells assessed as necrotic cells at 10 uM incubated for 24 hrs by Annexin-V/FITC and PI staining based flow cytometry analysis (reference value: 0.0%); type: functional
[13] = Half life in Sprague-Dawley rat at 2 mg/kg, iv measured upto 24 hrs by LC-MS/MS analysis; type: ADME, organism-based; settings: in vivo
[14] = test system: 4T1; experiment: Antitumor activity against mouse 4T1 cells allografted in BALB/c mouse assessed as reduction in tumor weight at 15 mg/kg, ip qd for 21 days by vernier caliper method relative to control; type: functional; set-up: scale not given: the % may be the effect or the level left; settings: time 21 day
[15] = test system: HCT-116; experiment: Cytotoxicity against human HCT-116 cells assessed as reduction in cell viability incubated for 48 hrs by MTT assay; type: functional, cell-based; settings: HCT-116, 48 h
[16] = test system: MDA-MB-231; experiment: Inhibition of colony formation in human MDA-MB-231 cells at 0.5 to 0.5 uM incubated for 24 hrs followed by culturing in fresh compound-free medium for 15 days by crystal violet dye based assay; type: functional, cell-based; settings: dose 0.5-0.5 µM
[17] = test system: MDA-MB-231; experiment: Effect on STAT3 in human MDA-MB-231 cells assessed as […] phosphorylation at 10 uM incubated for 24 hrs by Western blot analysis; type: functional, cell-based
[18] = test system: 4T1; experiment: Antitumor activity against mouse 4T1 cells allografted in BALB/c mouse assessed as reduction in tumor volume at 30 mg/kg, ip qd for 21 days and measured every 3 days by vernier caliper method relative to control; type: functional; set-up: scale not given: the % may be the effect or the level left; settings: time 21 day

With `COc1cc(/C=C/c2ccc(OCCCCCCC(=O)NO)cc2)cc(OC)c1` the Activity [1] was 39.6%, the inhibition [2] was “Active” and the Activity [3] was 15.2%. The Vd [4] was 1.65 L/kg, the IC50 [5] was 0.104 µM and the inhibition [6] was “Active”. The Activity [7] was 3.9%, the inhibition [8] was “Active” and the Activity [9] was 4.9%. The inhibition [10] was “Active”, the inhibition [11] was 37% and the Activity [12] was 0.2%. For the same molecule, the half-life [13] was 28.2 min, the Activity [14] was 53% and the IC50 [15] was 1.07 µM. For the same molecule, the inhibition [16] was “Active”, the Activity [17] was “Active” and the Activity [18] was 64%.
